Data: patent EP4168403B1 (priority 2020, dated 2021)
Where “and” joins values, the source holds several entries; their conditions need not be identical. Equal entries are not always repeated.

Assays:
[1] = target: T1, Human recombinant GSK-3β (Homo sapiens, UniProt P49841); assay: GSK-3β inhibition in vitro assay (Kinase-Glo luminescence); type: biochemical; conditions: ATP 1 µM, GSM substrate 25 µM; mean ± SEM
T1 construct: purchased Millipore (Millipore Iberica S.A.U.)
Experimental: Human recombinant GSK-3β, prephosphorylated polypeptide substrate and white 96-well plates were purchased from Millipore (Millipore Iberica S.A.U.). Kinase-Glo Luminescent Kinase Assay was obtained from Promega (Promega Biotech Iberica, SL). Adenosinetriphosphate (ATP) and all other reagents were from Sigma-Aldrich. Assay buffer contained 50 mM 4-(2-hydroxyethyl)-1- piperazineethanesulfonic acid (HEPES) (pH 7.5), 1 mM ethylenediaminetetraacetic acid (EDTA), 1 mM ethylene glycol tetraacetic acid (EGTA), and 15 mM magnesium acetate. The in solution experiments for GSK-3β inhibition analysis were performed by following the method developed by Baki et al^42. In a typical assay, 10 µL of test compound (dissolved in DMSO at 1 mM concentration and diluted in advance in assay buffer to the desired concentration) and 10 µL (20 ng) of enzyme were added to each well in presence of 20 µL of assay buffer containing GSM substrate and ATP in order to reach a 25 µM and 1 µM final concentration respectively. […] After a 30 min incubation time at 30 °C, the enzymatic reaction was stopped by adding 40 µL of Kinase-Glo reagent. Glow-type luminescence was recorded after 10 min using a VictorX 3 PerkinElmer plate reader. […]. The linear regression parameters were determined and the IC50 extrapolated (GraphPad Prism 4.0, GraphPad Software Inc.).

[2] = target: Tau(306-336) peptide (Homo sapiens, UniProt P10636); conditions: Tau(306-336) 50 µM, inhibitor 50 µM (1:1 ratio); mean ± SEM; 50 µM
Experimental: Subsequently, the sample was aliquoted dried and stored at -20 °C.
Fluorescence data were recorded every 10 min overnight with 1 min shaking at 800 rpm prior to each reading. Each inhibitor was assayed in triplicates in at least two independent experiments. […] Inhibition % are expressed as the mean ± SEM. […] Values were averaged and the presented values are expressed as the mean ± SEM.
Fluorescence data were recorded every 10 min overnight with 1 min shaking at 800 rpm prior to each reading.

[3] = tested on: mice; assay: Object Recognition task (ORT), scopolamine-induced memory impairment; type: in vivo
Experimental: For behavioural studies, 50 swiss female 10-week-old weighing 25-30 g were used. Memory impairment was induced by the potent antimuscarinic drug scopolamine hydrobromide (0.5 mg/kg, Sigma) dissolved in saline buffer. To explore the potential of BIGI-3h as a cognitive enhancer, the compound was administered at a dose of 1 mg/kg and 10 mg/kg. For comparison, the antiamnesic effect of donepezil was tested (Tocris Bioscience, R&D Systems Inc.) at a dose of 1 mg/kg. Both products, 3h and donepezil, were dissolved in saline buffer containing 3.6% dimethyl sulfoxide. All drug solutions were independently prepared immediately before their use and were administered intraperitoneally in 10 mL/kg of vehicle volume. Different batches of mice were used for each experiment. The animals were distributed into 5 experimental groups (I-V): control groups (I) mice administered 3.6% DMSO in saline buffer, labelled as "control vehicle"; experimental groups (II-V) consisted of (II) mice administered scopolamine dissolved in 3.6% DMSO in saline buffer, labelled as "scop/DMSO," (III) mice co-administered scopolamine plus Donepezil, labelled as "Scopo/donep," (IV) and (V) mice co-administrated scopolamine plus BIGI-3h at 1mg/Kg and 10mg/Kg labelled respectively "Scopo/3h 1" "Scopo/3h 10".
Spontaneous object recognition was tested as described previously, 28 with slight modifications. All behavioural experiments took place during the light phase of the 12-h light/ dark cycle between 10 am and 3 pm to minimize the influence of circadian rhythm, and they were conducted with the investigators blind to treatments. […] The total time spent in active exploration of each object during T1 and T2 was determined with a computerized tracking system and image analyzer (Ethovision XT, Noldus Information Technology) that tracked the nose, centre and tail points of each mouse^45. As a criterion of active object exploration, it was measured the time spent by the animal directing its nose to the object at a distance of less than 2 cm and/or touching it with the vibrissae or nose. […]

Tau(306-336) peptide, sequence (P10636 623-653 limits assumed): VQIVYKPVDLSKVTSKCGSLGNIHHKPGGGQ
T1 sequence (P49841 whole entry): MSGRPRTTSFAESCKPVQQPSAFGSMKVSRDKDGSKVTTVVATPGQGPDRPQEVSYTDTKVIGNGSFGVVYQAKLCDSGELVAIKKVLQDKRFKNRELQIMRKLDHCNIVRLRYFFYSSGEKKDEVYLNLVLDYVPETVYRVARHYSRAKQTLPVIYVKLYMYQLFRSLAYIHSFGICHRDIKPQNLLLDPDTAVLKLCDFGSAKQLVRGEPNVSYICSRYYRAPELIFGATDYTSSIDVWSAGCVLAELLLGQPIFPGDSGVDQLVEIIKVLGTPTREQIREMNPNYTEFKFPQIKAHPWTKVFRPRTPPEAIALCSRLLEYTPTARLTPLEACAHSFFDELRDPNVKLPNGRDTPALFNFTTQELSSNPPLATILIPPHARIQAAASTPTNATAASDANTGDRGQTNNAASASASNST

CCOC(=O)C1=C(C)N(CCC2CCN(Cc3ccccc3)CC2)C(=O)NC1c1coc2c(Cl)cc(Cl)cc2c1=O (racemic) [BIGI-3h, ethyl 1-(2-(1-benzylpiperidin-4-yl)ethyl)-4-(6,8-dichloro-4-oxo-4H-chromen-3-yl)-6-methyl-2-oxo-1,2,3,4-tetrahydropyrimidine-5-carboxylate]
IC50 [1]: 29.1 µM
Inhibition of T (306-336) peptide self - aggregation (%) [2]: 73.7% and 73.7 ± 5.4%
recognition index / discrimination index (Figure 5) ([3]; 1 mg/kg intraperitoneally with scopolamine 0.5 mg/kg): reversed the short-term memory impairment induced by scopolamine
recognition index / discrimination index (Figure 5) ([3]; 10 mg/kg intraperitoneally with scopolamine 0.5 mg/kg, **p < 0.01 vs scopo/DMSO): significantly improved discrimination index
